Test results taken from patent US5744479A, “Thienopyridine compounds which have useful pharmaceutical activity” (Takeda Chemical Industries, Ltd., priority 1995, dated 1998).
Counter-ions that a name gives are not always drawn.

What follows are compounds tested against T1, human GnRH receptor (Homo sapiens, UniProt P30968) (assay: Inhibition of ^125 I-leuprorelin binding to membrane fraction of CHO cells expressing human GnRH receptors). Conditions: CHO cell membrane fraction, 25° C., 60 minutes, concentration of PMB=50% by Hill plot, read-out: IC50 value human GnRH receptor (^125 I-leuprorelin binding inhibitory rate).
T1 construct: expressed in transfected cells; host or cells: CHO (Chinese Hamster Ovary) cells, membrane fraction
T1 sequence (P30968 1-328): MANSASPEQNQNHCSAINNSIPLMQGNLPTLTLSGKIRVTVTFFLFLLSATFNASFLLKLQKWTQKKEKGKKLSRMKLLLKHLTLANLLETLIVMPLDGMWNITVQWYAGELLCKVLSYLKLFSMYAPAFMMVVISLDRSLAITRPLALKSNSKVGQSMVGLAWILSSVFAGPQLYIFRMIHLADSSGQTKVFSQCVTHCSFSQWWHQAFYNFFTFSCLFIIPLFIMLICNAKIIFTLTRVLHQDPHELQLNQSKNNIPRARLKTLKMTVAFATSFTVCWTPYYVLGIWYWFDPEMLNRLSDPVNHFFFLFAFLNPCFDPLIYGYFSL
Work on `CC(C)Oc1cn(Cc2c(F)cccc2F)c2sc(-c3ccc(NC(=O)C(C)C)cc3)c(CN(C)Cc3ccccc3)c2c1=O` [Example 8(4), 4,7-dihydro-2-(4-isobutyrylaminophenyl)-3-(N-benzyl-N-methylaminomethyl)-5-isopropoxy-7-(2,6-difluorobenzyl)-4-oxothieno[2,3-b]pyridine] yielded an IC50 of 1 nM.
`CC(C)C(=O)Nc1ccc(-c2sc3c(c2CN(C)Cc2ccccc2)c(=O)c(OS(=O)(=O)C(C)C)cn3Cc2c(F)cccc2F)cc1` [Example 10, 4,7-dihydro-2-(4-isobutyrylaminophenyl)-3-(N-benzyl-N-methylaminomethyl)-5-isopropylsulfonyloxy-7-(2,6-difluorobenzyl)-4-oxothieno[2,3-b]pyridine hydrochloride] gave an IC50 of 0.3 nM.
`CC(C)C(=O)Nc1ccc(-c2sc3c(c2CN(C)Cc2ccccc2)c(=O)c(OC(=O)C(C)C)cn3Cc2c(F)cccc2F)cc1` [Example 11, 4,7-dihydro-2-(4-isobutyrylaminophenyl)-3-(N-benzyl-N-methylaminomethyl)-5-isobutyryloxy-7-(2,6-difluorobenzyl)-4-oxothieno[2,3-b]pyridine hydrochloride] was tested, and the IC50 was 2 nM.
`CCOC(=O)COc1cn(Cc2c(F)cccc2F)c2sc(-c3ccc(NC(=O)C(C)C)cc3)c(CN(C)Cc3ccccc3)c2c1=O` [Example 12, 4,7-dihydro-2-(4-isobutyrylaminophenyl)-3-(N-benzyl-N-methylaminomethyl)-5-ethoxycarbonylmethoxy-7-(2,6-difluorobenzyl)-4-oxothieno[2,3-b]pyridine] was tested, and the IC50 was 3 nM.
